Experimental findings from patent US20080014133A1, “Extraction Of Radionuclides By Crown Ether-Containing Extractants” (priority 2004, published 2008) are described below.

Where only a bound is given, the exact number is not on record here.

Common to all, as to type: physicochemical
A short description of series [1]: Distribution ratio of strontium extracted in organic solutions of crown ethers (Table 1). Conditions: crown ether 0.1 mole/l in Fluoroheptanol n3; Sr and Cs 1 g/l, nitric acid about 3.0 mol/l. The method, then:
(§1) Study was carried out for determining the distribution ratios of radionuclides, for example, strontium or cesium to be extracted by the extractants according to the invention containing various crown ethers as a complexing agent: bis(tert-butylbenzo)-18-crown-6 (subsequently referred to as DTBDB18C6), di-isooctylbenzo-18-crown-6 (subsequently referred to as DIODB18C6), bis(tert-butylcyclohexane-18-crown-6 (subsequently referred to as DTBDCH18C6), di-isooxyldicyclohexane-18-crown-6 (subsequently referred to as DIODCH18C6), bicyclohexane-18-crown-6 (subsequently referred to as DCH18C6) or dibenzo-21-crown-7 (subsequently referred to as DB21C7), in an organic solvent according to the invention: polyfluorinated telomeric alcohol 1,1,7-trihydrododecafluoroheptanol-1 (subsequently referred to as fluoroheptanol n3).
(§2) For comparison, the distribution ratios of strontium and cesium were determined using extractants containing similar crown ethers in another organic solvent (decane).
(§3) Taken for the tests were experimental aqueous nitrate solutions containing strontium and cesium in a concentration of 1 g/l with a content of nitric acid of about 3.0 mol/l.

Series [2] in a line: Extraction of strontium in a dynamic countercurrent mode (7.1). An excerpt: (§4) A starting aqueous solution whose composition and concentration of the components are given in Table 3 for a solution No.1 was contacted with the extractant according to the invention containing 0.05 mole/l of DCH18C6 in a solvent containing 20% by volume of synthanol and 80% by volume of Fluoroheptanol n3 in a continuous countercurrent process on a facility with extractors such as “mixer-settler” devices with impulse agitation and phase transportation. The extraction included eight steps of extraction, two washing steps, eight re-extraction steps and two steps of regeneration of the reused extractant.
(§5) When running the facility, radiometric monitoring devices were used to control the concentration of strontium in the refined products, re-extracts and reclaims, as well as the concentration of the crown ethers in the extracted products.

Series [3] can be described thus: Concentration of crown ether in extracted products, dynamic strontium extraction (7.1).
Text: as §4, §5

A short description of series [4]: Distribution ratio of cesium extracted in organic solutions of crown ethers (Table 1). Conditions: crown ether 0.1 mole/l in Fluoroheptanol n3; Sr and Cs 1 g/l, nitric acid about 3.0 mol/l. The method, then: as §1, §2, §3
Series [5] in a line: Influence of nitric acid concentration on cesium extraction from solution No.1. The note with it: for Distribution ratios of cesium: solution No.1. An excerpt:
The dependence of extraction of cesium by organic solutions DTBDB18C6 in fluoropentanol n3 and DB21C7 in Fluoroheptanol n3 at a concentration of nitric acid in a starting solution was studied. Solution No.1 whose composition is listed in Table 2 was used as a starting solution.

Series [6] can be described thus: Extraction of cesium under dynamic conditions (7.2). An excerpt: The scheme of the process and the conditions of extraction of cesium by the method according to the invention are similar to those described above in 7.1, but the organic phase for extraction of cesium includes solutions DB21C7 in a concentration of about 0.05 mol/l in an organic solvent containing synthanol in an amount of 5% by volume and Fluoroheptanol n3 in an amount of about 95% by volume.
During the operation of the experimental facility radiometric monitoring devices were used to control the concentration of strontium in the refined products, re-extracts and reclaims, as well as the concentration of the crown ethers in the extracted products. The technological characteristics of the process and solubility of the crown ether (averaged values of several experiments) are given in Table 16.

Take `C1CCC2OCCOCCOC3CCCCC3OCCOCCOC2C1` (stereo not drawn) [DCH18C6, bicyclohexane-18-crown-6]: in series [1], the “Distribution ratio Strontium” value was found to be 1.6. The “Contents of strontium in the extracted products, in percent of the feedstock” value in series [2] (Re-extract) is given as 99.55% of the feedstock; in series [2] (Reclaim) it was <0.1% of the feedstock; in series [2] (Refined product, 0.05 mol/l DCH18C6, Synthanol 20% / Fluoroheptanol n3 80%, solution No.1), 0.35% of the feedstock. Further, in series [2] (dynamic mode 7.1), the Average concentrating factor result was “about 1.7 times”. In addition, the “Efficiency of the extraction of strontium” value in series [2] (dynamic mode 7.1) was “exceeds 99%”. Moreover, the “Concentration of crown ether in the extracted products” value is recorded as 172 Mg/l in series [3] (Re-extract), 30 Mg/l in series [3] (Reclaim) and 80 Mg/l in series [3] (Refined product).

`c1ccc2c(c1)OCCOCCOCCOc1ccccc1OCCOCCO2` [DB21C7, dibenzo-21-crown-7]: the “Distribution ratio Cesium” value in series [4] is on record as 10.7. Moreover, the “Concentration of nitric acid at the maximum of cesium extraction” value in series [5] is roughly 3.0 mol/l. For the same compound, the “Distribution ratios of cesium” value in series [5] (nitric acid 0 mol/l, Fluoroheptanol n3) was 0.25; in series [5] (nitric acid 0.1 mol/l) it was 1.0; in series [5] (nitric acid 0.5 mol/l), 3.2; in series [5] (nitric acid 1.0 mol/l), 7.8; in series [5] (nitric acid 2.0 mol/l), 10.2; in series [5] (nitric acid 3.0 mol/l), 12.2. In addition, the “Distribution ratios of cesium” value in series [5] (nitric acid 4.0 mol/l) amounted to 11.4; in series [5] (nitric acid 5.0 mol/l), 10.0; in series [5] (nitric acid 6.0 mol/l), 8.0; in series [5] (nitric acid 7.0 mol/l), 6.2; in series [5] (nitric acid 8.0 mol/l) it was 5.0. Moreover, the “Content of cesium in the extracted products in percent of the feedstock” value in series [6] (Re-extract) is 94.5% of the feedstock; in series [6] (Reclaim) it was 4.15% of the feedstock; in series [6] (Refined product, 0.05 mol/l DB21C7, Synthanol 5% / Fluoroheptanol n3 95%, solution No.1) it was 1.35% of the feedstock. In series [6] (dynamic conditions 7.2), the “Cesium yield in a saltless product” value is listed as “about 95%”. Further, the Extraction of cesium in series [6] (dynamic conditions 7.2) is greater than 98%.
